Consider four compounds from ChEMBL document CHEMBL1201862, “PubChem BioAssay data set” (2004).

Test systems include 786-0; CAKI-1; COLO 205; HCC 2998; HCT-15; K562; M14; MOLT-4; NCI-H23; NCI-H522; RXF 393; SK-MEL-2; SNB-75; SR; SW-620; U-251; UACC-62; UO-31; MDA-N.
What all share (assay): NCI-60 cell line screen, 48 h

Each structure is given as a SMILES string.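 Exposure lasted 48 hours, with cells grown in 96-well plates and compounds tested at five concentrations. At the GI50, growth is halved.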 Activity calls are given as the source filed them. Rule as the data show it: active = GI50 up to about 1.1 µM and inactive = higher. Some results are limits rather than exact numbers.

As for `COc1cc(/C=C2\[C@H]3c4c(c(OC)c(C)c(OC)c4OC)C[C@@H](C(=O)N2Cc2ccccc2)N3C(=O)OCC(C)C)c(OC)c(C)c1OC`, the GI50 in the assay on 786-0 was > 100 µM (inactive); with CAKI-1, 23.6 µM (inactive); with COLO 205 it was > 86.3 µM (inactive); with HCC 2998 it was > 78.9 µM (inactive); in the assay with HCT-15 it was > 100 µM; in the assay with K562, 42.2 µM (inactive). For the same compound, the GI50 is > 100 µM (inactive) in the assay with M14; 12.3 µM (inactive) in the assay on MOLT-4; > 100 µM (inactive) with NCI-H23; 19.4 µM (inactive) in the assay with NCI-H522; > 100 µM (inactive) in the assay with RXF 393; > 100 µM (inactive) with SK-MEL-2. In addition, the GI50 was > 83.2 µM (inactive) with SNB-75; 13.3 µM (inactive) in the assay on SR; > 31.6 µM (inactive) with SW-620; > 85.5 µM (inactive) in the assay on U-251; > 100 µM (inactive) with UACC-62; > 100 µM (inactive) in the assay with UO-31.

For the compound `COC1=CC(=Nc2c(Cl)cc(Cl)cc2OC(=O)c2ccc([N+](=O)[O-])cc2)C=C(OC)C1=O`, the GI50 in the assay with 786-0 is 14.8 µM (inactive); with CAKI-1 it was 16.9 µM (inactive); in the assay with COLO 205, 17.5 µM (inactive); with HCC 2998 it was 18.2 µM (inactive); in the assay on HCT-15, 5.97 µM; with K562, 2.53 µM (inactive). The GI50 was 13 µM (inactive) in the assay with M14; 2.87 µM (inactive) with MOLT-4; 9.12 µM (inactive) with NCI-H23; 9.23 µM (inactive) in the assay on NCI-H522; 12.1 µM (inactive) in the assay on RXF 393; 15.8 µM (inactive) in the assay with SK-MEL-2. In addition, the GI50 in the assay on SNB-75 is 14.2 µM (inactive); in the assay on SR it was 3.22 µM (inactive); with SW-620, 13.5 µM (inactive); with U-251, 13.8 µM (inactive); with UACC-62 it was 4.26 µM (inactive); with UO-31, 11.9 µM (inactive).

For `CCOc1ccccc1/N=C(/NC(=O)CC)SC`, the GI50 in the assay with 786-0 was > 10 µM (inactive); in the assay on CAKI-1, > 10 µM (inactive); in the assay on COLO 205, > 10 µM (inactive); in the assay with HCC 2998, > 10 µM (inactive); with HCT-15, 52.5 µM; with K562 it was > 10 µM (inactive). In addition, the GI50 is > 10 µM (inactive) in the assay on M14; 68.4 µM (inactive) with MOLT-4; 70.5 µM (inactive) with NCI-H23; > 10 µM (inactive) in the assay with NCI-H522; > 10 µM (inactive) in the assay on RXF 393; 38.7 µM (inactive) in the assay with SK-MEL-2. The GI50 with SNB-75 was 67.6 µM (inactive); in the assay on SR, > 10 µM (inactive); in the assay with SW-620, > 10 µM (inactive); in the assay on U-251, > 10 µM (inactive); in the assay with UACC-62 it was > 10 µM (inactive); with UO-31, > 10 µM (inactive).

Take `CC(=O)Oc1ccc2c(C)cc(=O)oc2c1OC(C)=O`: the GI50 in the assay on 786-0 was 37.2 µM (inactive); in the assay with COLO 205 it was 42.8 µM (inactive); in the assay on HCT-15, 21.1 µM; in the assay on K562 it was 47.8 µM (inactive); in the assay on M14 it was 39.1 µM (inactive); in the assay on MDA-N it was > 100 µM (inactive). The GI50 in the assay with MOLT-4 was 34.5 µM (inactive); with NCI-H23 it was 26.9 µM (inactive); in the assay on SK-MEL-2, > 100 µM (inactive); in the assay with SNB-75, 27 µM (inactive); in the assay on SR, 17.3 µM (inactive); in the assay with SW-620, 30.7 µM (inactive). In addition, the GI50 in the assay with U-251 was 35.2 µM (inactive); in the assay with UACC-62, 49.1 µM (inactive); in the assay with UO-31 it was 26.5 µM (inactive).
